Laboratory results: ChEMBL document CHEMBL4184246 (Bioorg Med Chem Lett, 2018)
The source made the active and inactive calls. The rule behind the calls is not given here.

Key:
Assay type in all cases: functional, cell-based
[1] = test system: A549; assay: Increase in DR5 protein expression in human A549 cells at 13 uM incubated for 4 days in absence of 200 U/ml IFNalpha by Western blot analysis
[2] = test system: A549; assay: Induction of apoptosis in human A549 cells assessed as increase in PARP cleavage at 13 uM incubated for 4 days in presence of 200 U/ml IFNalpha by Western blot analysis
[3] = test system: A549; assay: Growth inhibition of human A549 cells at 13 uM incubated for 4 days in presence of 200 U/ml IFNalpha and 30 nM 14-3-3zeta siRNA by MTS assay
[4] = test system: A549; assay: Growth inhibition of human A549 cells incubated for 6 days in absence of 400 U/ml IFNalpha by MTS assay; details: A549, 144 h
[5] = test system: A549; assay: Induction of apoptosis in human A549 cells assessed as increase in PARP cleavage at 13 uM incubated for 4 days in absence of 200 U/ml IFNalpha by Western blot analysis
[6] = test system: A549; assay: Increase in DR5 protein expression in human A549 cells at 13 uM incubated for 4 days in presence of 200 U/ml IFNalpha by Western blot analysis
[7] = test system: A549; assay: Growth inhibition of human A549 cells incubated for 6 days in presence of 400 U/ml IFNalpha by MTS assay; details: A549, 144 h
[8] = test system: OVCAR-3; assay: Growth inhibition of human OVCAR3 cells incubated for 7 days in absence of 400 U/ml IFNalpha by MTS assay; details: OVCAR-3, 168 h
[9] = test system: A549; assay: Growth inhibition of human A549 cells at 13 uM incubated for 4 days in presence of 200 U/ml IFNalpha and in absence of 30 nM 14-3-3zeta siRNA by MTS assay
[10] = test system: OVCAR-3; assay: Growth inhibition of human OVCAR3 cells incubated for 7 days in presence of 400 U/ml IFNalpha by MTS assay; details: OVCAR-3, 168 h
[11] = test system: A549; assay: Induction of apoptosis in human A549 cells assessed as increase in PARP cleavage at 14 uM incubated for 4 days in absence of 200 U/ml IFNalpha by Western blot analysis
[12] = test system: A549; assay: Growth inhibition of human A549 cells at 14 uM incubated for 4 days in presence of 200 U/ml IFNalpha and in absence of 30 nM 14-3-3zeta siRNA by MTS assay
[13] = test system: A549; assay: Increase in DR5 protein expression in human A549 cells at 14 uM incubated for 4 days in presence of 200 U/ml IFNalpha by Western blot analysis
[14] = test system: A549; assay: Growth inhibition of human A549 cells at 14 uM incubated for 4 days in presence of 200 U/ml IFNalpha and 30 nM 14-3-3zeta siRNA by MTS assay
[15] = test system: A549; assay: Increase in DR5 protein expression in human A549 cells at 14 uM incubated for 4 days in absence of 200 U/ml IFNalpha by Western blot analysis
[16] = test system: A549; assay: Induction of apoptosis in human A549 cells assessed as increase in PARP cleavage at 14 uM incubated for 4 days in presence of 200 U/ml IFNalpha by Western blot analysis

Compound: COC[C@H]1O[C@H](O[C@@H]2C3=C(C(C)C)CC[C@]3(C)/C=C3\[C@@H](CC[C@]3(O)COC)[C@@H](C)[C@H]2O)[C@H](O)[C@H]2O[C@H]3O[C@]21O[C@@]3(C)[C@@H]1CO1
- Activity [1]: Active
- Activity [2]: Active
- growth inhibition (GI) [3]: inactive
- EC50 [4]: 125 µM
- Activity [5]: inactive
- Activity [6]: Active
- EC50 [7]: 17 µM
- EC50 [8]: 40 µM
- growth inhibition (GI) [9]: Active
- EC50 [10]: 4.6 µM

Compound: COC[C@H]1CC[C@@H]2/C1=C\[C@@]1(C)CCC(C(C)C)=C1[C@@H](O[C@H]1O[C@@H]3COC(C)(C)O[C@H]3[C@H](O)[C@H]1O)[C@H](O)[C@@H]2C
- EC50 [4]: 33 µM
- EC50 [7]: 27 µM
- EC50 [8]: 29 µM
- Activity [11]: inactive
- EC50 [10]: 18 µM

Compound: COC[C@@]1(OC)CC[C@@H]2/C1=C\[C@@]1(C)CCC(C(C)C)=C1[C@@H](O[C@H]1O[C@@H]3COC(C)(C)O[C@H]3[C@H](O)[C@H]1O)[C@H](O)[C@@H]2C
- EC50 [4]: 170 µM
- EC50 [7]: > 40 µM
- EC50 [8]: 140 µM
- EC50 [10]: > 40 µM

Compound: COC[C@@]1(O)CC[C@@H]2/C1=C\[C@@]1(C)CCC(C(C)C)=C1[C@@H](O[C@H]1O[C@@H]3COC(C)(C)O[C@H]3[C@H](O)[C@H]1O)[C@H](O)[C@@H]2C
- growth inhibition (GI) [12]: Active
- Activity [13]: Active
- EC50 [4]: > 200 µM
- EC50 [7]: 11 µM
- growth inhibition (GI) [14]: inactive
- EC50 [8]: > 200 µM
- EC50 [10]: 3.3 µM
- Activity [15]: Active
- Activity [16]: Active
